Earlier results as cited in US8765195B2, “Methods and compositions for increasing sex steroids and growth hormones” (Quality IP Holdings, Inc., priority 2012, dated 2014).

Tests used:
hGH = conditions: for effect on hGH: other amino acids, literature
[1] = subcutaneous injection of 0.06 IU, GH deficient subjects

Molecule | effect on hGH (hGH) | further results
NCCC[C@H](N)C(=O)O [ornithine] | marked increases in hGH | –
N[C@@H](Cc1ccccc1)C(=O)O [phenylalanine] | marked increases in hGH | –
NCCCC[C@H](N)C(=O)O [lysine] | marked increases in hGH | –
N[C@@H](Cc1c[nH]cn1)C(=O)O [histidine] | marked increases in hGH | –
CSCC[C@H](N)C(=O)O [methionine] | marked increases in hGH | –
N=C(N)NCCC[C@H](N)C(=O)O [arginine] | – | elevation of serum hGH levels (hGH; 30 g, males): 8.6 fold; increase of hGH levels (hGH; intravenous infusion of 183 mg/kg body weight, females): > 20 fold
HGH: human growth hormone given by subcutaneous injection to GH deficient subjects | – | mean levels of GH reached [1]: 0.4 ng/mL
